Measurements as given in PMC5447332 (Targeted Oncology, 2017).
Values joined by “and” are separate entries in the source; they are usually repeats but may differ in a detail not shown here. Equal values may be shown once. “Also recorded” adds a separate entry of the source. Read-outs that look alike come from different tables or passages of the source.

Experiments:
[1] = Pharmacokinetics of BEZ235 in plasma, phase Ib combination with everolimus; format: in vivo, human (patients with advanced solid tumors); settings: for Apparent clearance, CL/F / Cmax / Dose / half-life / AUC(0-t) / AUC(0-inf) / Cmax / Tmax: plasma; for half-life / AUC(0-t) / AUC(0-inf) / Cmax / Tmax: human
[2] = BEZ235 200 mg twice daily; cited from earlier work
[3] = preclinical studies; ref not given; cited from earlier work
[4] = Pharmacokinetics of everolimus in whole blood when co-administered with BEZ235; format: in vivo, human (patients with advanced solid tumors)
[5] = cited from earlier work
[6] = whole blood; ref not given; cited from earlier work
[7] = BEZ235 200 mg/d + everolimus 2.5 mg/d oral, day 1, mean ± SE
[8] = BEZ235 200 mg/d + everolimus 2.5 mg/d oral, day 28, mean ± SE
[9] = BEZ235 400 mg/d + everolimus 2.5 mg/d oral, day 1, mean ± SE
[10] = BEZ235 400 mg/d + everolimus 2.5 mg/d oral, day 28, mean ± SE
[11] = BEZ235 800 mg/d + everolimus 2.5 mg/d oral, day 1, mean ± SE
[12] = BEZ235 800 mg/d + everolimus 2.5 mg/d oral, day 28, mean ± SE
[13] = po, BEZ235 200 mg/d + everolimus 2.5 mg/d oral, day 1, mean ± SE
[14] = po, BEZ235 200 mg/d + everolimus 2.5 mg/d oral, day 28, mean ± SE
[15] = po, BEZ235 400 mg/d + everolimus 2.5 mg/d oral, day 1, mean ± SE
[16] = po, BEZ235 400 mg/d + everolimus 2.5 mg/d oral, day 28, mean ± SE
[17] = po, BEZ235 800 mg/d + everolimus 2.5 mg/d oral, day 1, mean ± SE
[18] = po, BEZ235 800 mg/d + everolimus 2.5 mg/d oral, day 28, mean ± SE
[19] = everolimus 2.5 mg/d oral + BEZ235 200-800 mg/d, day 1, whole blood, mean ± SE

With `Cn1c(=O)n(-c2ccc(C(C)(C)C#N)cc2)c2c3cc(-c4cnc5ccccc5c4)ccc3ncc21` [BEZ235, dactolisib] the “Apparent clearance, CL/F” value [1, 7] was 629.6 ± 278.1 L/h, the “Cmax / Dose” value [1, 7] was 0.2 ng/mL/mg and 0.2 ± 0.1 ng/mL/mg and the “Apparent clearance, CL/F” value [1, 8] was 116.3 ± 24.4 L/h. The “Cmax / Dose” value [1, 8] was 1.1 ± 0.6 ng/mL/mg, the “Apparent clearance, CL/F” value [1, 9] was 644.3 ± 192.9 L/h and the “Cmax / Dose” value [1, 9] was 0.3 ng/mL/mg and 0.3 ± 0.1 ng/mL/mg. For the same compound, the “Apparent clearance, CL/F” value [1, 10] was 309.3 ± 241.3 L/h, the “Cmax / Dose” value [1, 10] was 0.6 ± 0.5 ng/mL/mg and the “Apparent clearance, CL/F” value [1, 11] was 773.9 ± 262.1 L/h. For the same compound, the “Cmax / Dose” value [1, 11] was 0.3 ng/mL/mg and 0.3 ± 0.1 ng/mL/mg, the “Apparent clearance, CL/F” value [1, 12] was 355.9 ± 246.6 L/h and the “Cmax / Dose” value [1, 12] was 1.1 ± 0.7 ng/mL/mg. For the same compound, the “Drug levels at steady state relative to single dose administration” value ([1]; BEZ235 200-800 mg) was ~3 fold, the half-life ([1]; oral, Steady-state half-life, range over 200-800 mg/day) was 15 to 43 h and the AUC(0-t) ([1]; po, AUC 0-24, BEZ235 200 mg/d + everolimus 2.5 mg/d oral, day 1, mean ± SE) was 433 ± 96 ng·h/mL. The AUC(0-t) ([1]; po, AUC 0-24, BEZ235 200 mg/d + everolimus 2.5 mg/d oral, day 28, mean ± SE) was 1470 ± 515 ng·h/mL, the AUC(0-t) ([1]; po, AUC 0-24, BEZ235 400 mg/d + everolimus 2.5 mg/d oral, day 1, mean ± SE) was 741 ± 171 ng·h/mL and the AUC(0-t) ([1]; po, AUC 0-24, BEZ235 400 mg/d + everolimus 2.5 mg/d oral, day 28, mean ± SE) was 1460 ± 1250 ng·h/mL. For the same compound, the AUC(0-t) ([1]; po, AUC 0-24, BEZ235 800 mg/d + everolimus 2.5 mg/d oral, day 1, mean ± SE) was 2080 ± 666 ng·h/mL, the AUC(0-t) ([1]; po, AUC 0-24, BEZ235 800 mg/d + everolimus 2.5 mg/d oral, day 28, mean ± SE) was 7800 ± 5610 ng·h/mL and the AUC(0-inf) [1, 13] was 468 ± 118 ng·h/mL. The AUC(0-inf) [1, 14] was 1490 ± 691 ng·h/mL, the AUC(0-inf) [1, 15] was 831 ± 163 ng·h/mL and the AUC(0-inf) [1, 16] was 2710 ± 2340 ng·h/mL. It also gave an AUC(0-inf) [1, 17] of 2170 ± 675 ng·h/mL, an AUC(0-inf) [1, 18] of 8880 ± 6590 ng·h/mL and a Cmax [1, 13] of 45.2 ± 11.4 ng/mL. For the same compound, the Cmax [1, 14] was 214 ± 114 ng/mL, the Cmax [1, 15] was 102 ± 22.4 ng/mL and the Cmax [1, 16] was 227 ± 198 ng/mL. For the same compound, the Cmax [1, 17] was 243 ± 52.7 ng/mL, the Cmax [1, 18] was 880 ± 570 ng/mL and the half-life ([1]; po, Terminal half-life, BEZ235 200 mg/d + everolimus 2.5 mg/d oral, day 1, mean ± SE) was 3.2 ± 1 h. The half-life ([1]; po, Terminal half-life, BEZ235 200 mg/d + everolimus 2.5 mg/d oral, day 28 (steady state), mean ± SE) was 19.2 ± 2.5 h, the half-life ([1]; po, Terminal half-life, BEZ235 400 mg/d + everolimus 2.5 mg/d oral, day 1, mean ± SE) was 8.6 ± 1.5 h and the half-life ([1]; po, Terminal half-life, BEZ235 400 mg/d + everolimus 2.5 mg/d oral, day 28 (steady state), mean ± SE) was 43.4 ± 10.8 h. It also gave a half-life ([1]; po, Terminal half-life, BEZ235 800 mg/d + everolimus 2.5 mg/d oral, day 1, mean ± SE) of 5.9 ± 0.7 h, a half-life ([1]; po, Terminal half-life, BEZ235 800 mg/d + everolimus 2.5 mg/d oral, day 28 (steady state), mean ± SE) of 15 ± 6.4 h and a Tmax [1, 13] of 3.8 ± 1.6 h. The Tmax [1, 14] was 2.7 ± 0.7 h, the Tmax [1, 15] was 2.5 ± 0.9 h and the Tmax [1, 16] was 1.5 ± 0.5 h. The Tmax [1, 17] was 2.6 ± 0.8 h, the Tmax [1, 18] was 2 h and the “Accumulation higher than anticipated” value ([1]; multiple dosing, day 28) was 2–3 fold. For the same compound, the “Oral bioavailability (oral availability)” value ([1]; patients, SDS sachet, this study) was “quite low; also recorded: remained low”, the Average plasma concentration ([1]; steady state, doses of 200 to 800 mg/day) was 61 to 324 ng/mL and the AUC0-24 [2] was 752.9 ng·h/mL. The Aqueous solubility [3] was “poor”.
In the case of `CO[C@H]1C[C@@H]2CC[C@@H](C)[C@@](O)(O2)C(=O)C(=O)N2CCCC[C@H]2C(=O)O[C@H]([C@H](C)C[C@@H]2CC[C@@H](OCCO)[C@H](OC)C2)CC(=O)[C@H](C)/C=C(\C)[C@@H](O)[C@@H](OC)C(=O)[C@H](C)C[C@H](C)/C=C/C=C/C=C/1C` [Everolimus, everolimus], the “Increase in dose-normalized AUC0-24 (exposure), combination with BEZ235 compared to everolimus alone” value ([4]; everolimus 2.5 mg/d + BEZ235 vs reported everolimus alone (ref 23)) is reported as 1.7 fold, the “Apparent clearance, CL/F” value [4, 19] is reported as 24.76 ± 2.91 L/h and the “Cmax / Dose” value [4, 19] is reported as 5.63 ± 0.6 ng/mL/mg. For the same compound, the “Cmax / Dose” value ([4]; everolimus 2.5 mg/d oral + BEZ235 200-800 mg/d, day 28, whole blood, mean ± SE) was 12.67 ± 2.96 ng/mL/mg, the Reported everolimus clearance ([5]; 5 mg dosed alone) was 21.3 L/h and the Reported everolimus clearance ([5]; 10 mg dosed alone) was 27.3 L/h. The “Median Tmax” value ([5]; everolimus after oral administration, ref not given) was 1 to 2 h, the “Dose-normalized Cmax” value ([5]; everolimus dosed alone, cancer patients) was 6.3 ng/mL and the Oral bioavailability ([5]; everolimus, ref not given) was “low”. For the same compound, the Binding to erythrocytes [6] was 85%.
